Patent publication EP0200132A2, “(Aminoalkylthio)hydroxydibenzoxepins, a process for their preparation and their use as medicaments” (HOECHST-ROUSSEL PHARMACEUTICALS INCORPORATED, priority 1985, dated 1986)

Columns and labels:
[1] = tested on: tetrabenazine-induced ptosis; experiment: inhibition of tetrabenazine-induced depression (ptosis) in mice; assay type: in vivo
[2] = tested on: phenyl-p-quinone writhing; experiment: phenyl-p-quinone writhing assay in mice; assay type: in vivo; conditions: Mus musculus, sc
Description: The (aminoalkylthio)hydroxydibenzoxepins of the present invention are also useful as analgetic agents due to their ability to alleviate pain in mammals. […] Exptl.

With `CN(C)CCC=C1c2ccccc2CCc2ccccc21` [Amitriptyline, reference compound] the “EDso (tetrabenazine-induced ptosis)” value ([1]; intraperitoneally, standard antidepressant, unit not given) was 1.5.
`CNCCSC1=Cc2cc(O)ccc2Oc2ccc(F)cc21` [Example 2, 2-Fluoro-8-hydroxy-11-[β-(methylamino)ethylthio)-dibenz-[b,f]oxepin] was tested, and the inhibition at 20 mg/kg ([2]; mice, subcutaneous dose 20 mg/kg of body weight) was 69% and the ED50 ([1]; Mus musculus, ip, intraperitoneal, read-out: intraperitoneal dose effecting a 50% inhibition of tetrabenazine-induced ptosis (ED50)) was 3.3 mg/kg.
`CNCCSC1=Cc2ccc(O)cc2Oc2ccc(F)cc21` [Example 3, 2-Fluoro-7-hydroxy-11-[β-(methylamino)ethylthio]-dibenz-[b,f]oxepin] showed an inhibition at 10 mg/kg ([2]; mice, subcutaneous dose 10 mg/kg of body weight) of 42% and an inhibition at 20 mg/kg ([1]; Mus musculus, ip, intraperitoneal dose 20 mg/kg of body weight) of 89%.
`CCC(=O)O[C@](Cc1ccccc1)(c1ccccc1)[C@H](C)CN(C)C` [Propoxyphene, reference compound] was tested, and the ED50 ([2]; read-out: dose giving calculated 50% inhibition of writhing) was 3.9 mg/kg.
